Source: the supplement of paper PMC10307832

Columns and labels:
Test in all cases: relative viability (nuclei count vs DMSO), 5 days (fraction); higher = more cells survive
A-427 = tested on: A-427
How it was run: (§1)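 Relative viability equals treated-well nuclei counts divided by vehicle-well nuclei counts. Counts came from 4× images of lung cancer cell lines grown in 1536-well plates for 5 days after pin-tool dosing on the day after seeding. Dosing used one drug alone or a fixed anchor-drug dose plus five library-drug doses (not always all listed) in √10 steps, and values are medians of duplicate plates.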

A549 = tested on: A549
How it was run: as §1

CAL-12T = tested on: CAL-12T
How it was run: as §1

Calu-6 = tested on: Calu-6
How it was run: as §1

EBC-1 = tested on: EBC-1
How it was run: as §1

IA-LM = tested on: IA-LM
How it was run: as §1

LK-2 = tested on: LK-2
How it was run: as §1

NCI-H1299 = tested on: NCI-H1299
How it was run: as §1

NCI-H1623 = tested on: NCI-H1623
How it was run: as §1

NCI-H1651 = tested on: NCI-H1651
How it was run: as §1

NCI-H1703 = tested on: NCI-H1703
How it was run: as §1

NCI-H1755 = tested on: NCI-H1755
How it was run: as §1

## CN1CCN(CCOc2cc(OC3CCOCC3)c3c(Nc4c(Cl)ccc5c4OCO5)ncnc3c2)CC1 [Saracatinib] + COc1cc2c(Oc3ccc(NC(=O)C4(C(=O)Nc5ccc(F)cc5)CC4)cc3F)ccnc2cc1OCCCN1CCOCC1 [Foretinib] (partner 0.25 µM)
A-427; first compound 0.02 µM
  relative viability: 1.09
A-427; first compound 0.2 µM
  relative viability: 1.09
A-427; first compound 0.6325 µM
  relative viability: 1.07
A-427; first compound 2 µM
  relative viability: 0.99
A549; first compound 0.02 µM
  relative viability: 0.864
A549; first compound 0.6325 µM
  relative viability: 0.8
A549; first compound 2 µM
  relative viability: 0.841
CAL-12T; first compound 0.02 µM
  relative viability: 1.12
CAL-12T; first compound 0.2 µM
  relative viability: 1.02
CAL-12T; first compound 0.6325 µM
  relative viability: 1.33
CAL-12T; first compound 2 µM
  relative viability: 1.18
Calu-6; first compound 0.02 µM
  relative viability: 0.813
Calu-6; first compound 0.2 µM
  relative viability: 0.579
Calu-6; first compound 0.6325 µM
  relative viability: 0.684
Calu-6; first compound 2 µM
  relative viability: 0.581
EBC-1; first compound 0.02 µM
  relative viability: 0.0938
EBC-1; first compound 0.2 µM
  relative viability: 0.111
EBC-1; first compound 0.6325 µM
  relative viability: 0.108
EBC-1; first compound 2 µM
  relative viability: 0.106
IA-LM; first compound 0.02 µM
  relative viability: 1.13
IA-LM; first compound 0.2 µM
  relative viability: 1.28
IA-LM; first compound 0.6325 µM
  relative viability: 1.01
IA-LM; first compound 2 µM
  relative viability: 0.912
LK-2; first compound 0.02 µM
  relative viability: 0.997
LK-2; first compound 0.2 µM
  relative viability: 1.09
LK-2; first compound 0.6325 µM
  relative viability: 1.41
LK-2; first compound 2 µM
  relative viability: 0.537
NCI-H1299; first compound 0.02 µM
  relative viability: 1.11
NCI-H1299; first compound 0.2 µM
  relative viability: 1.08
NCI-H1299; first compound 0.6325 µM
  relative viability: 1.21
NCI-H1299; first compound 2 µM
  relative viability: 1.14
NCI-H1623; first compound 0.02 µM
  relative viability: 0.876
NCI-H1623; first compound 0.2 µM
  relative viability: 0.723
NCI-H1623; first compound 0.6325 µM
  relative viability: 0.908
NCI-H1623; first compound 2 µM
  relative viability: 0.681
NCI-H1651; first compound 0.02 µM
  relative viability: 0.844
NCI-H1651; first compound 0.2 µM
  relative viability: 0.561
NCI-H1651; first compound 0.6325 µM
  relative viability: 0.908
NCI-H1651; first compound 2 µM
  relative viability: 0.657
NCI-H1703; first compound 0.02 µM
  relative viability: 0.38
NCI-H1703; first compound 0.2 µM
  relative viability: 0.319
NCI-H1703; first compound 0.6325 µM
  relative viability: 0.251
NCI-H1703; first compound 2 µM
  relative viability: 0.259
NCI-H1755; first compound 0.02 µM
  relative viability: 0.936
NCI-H1755; first compound 0.2 µM
  relative viability: 0.849
NCI-H1755; first compound 0.6325 µM
  relative viability: 0.821
NCI-H1755; first compound 2 µM
  relative viability: 0.792
